Where two headings read alike, the source gives them in different places. Each block holds one compound with its values, some of them ahead of it.
Experiments:
[1] = HEL cell growth inhibition (Sulforhodamine B protein-dye binding); type: cell-based, human; conditions: human, cell growth inhibition, two days of continuous treatment
Method: (§1) The effect of compounds on host cell replication (CC50), was measured using Sulforhodamine B-staining and the spectrophotometric method originally developed for the NCIs's in vitro anti-cancer drug screening program (P. Skehan et al., J. Natl. Cancer. Inst. 82, 1107-1112 (1990)). The CC50 value is the concentration of compound that inhibited actively replicating cells by 50% of control respectively after two days of continuous treatment.

HEL = assay: as above; type: cell-based, human; conditions: for percent inhibition observed at the highest concentration tested, HEL growth: number in parenthesis, NA = no activity observed
Method: as §1

HSV-1 proteins = assay: HSV-1 viral protein accumulation (Western immunoblot); type: cell-based; conditions: 10 micromolar, 16 hours, 2% (v/v) serum, FIG. 5D
HCMV = HCMV plaque-elimination assay in HEL cells; type: cell-based, HCMV (Towne); conditions: for inhibition of HCMV replication in plaque-elimination screen: fixed concentration, five micromolar (1, 2, ACV ten micromolar; PFA 250 micromolar), FIG. 3; for percent inhibition observed at the highest concentration tested, HCMV: number in parenthesis, NA = no activity observed; for activity against HCMV, in words: quantitative comparison, Table 1; for EC50: read-out: ED50 HCMV
Method: Virus and cell growth inhibition assays. Established virus culture techniques were used (E.-S. Huang, and T Kowalnick, Diagnosis of human cytomegalovirus infection: laboratory approaches, in Molecular Aspects of Human Cytomegalovirus Diseases (Becker,Y., Daria, G., and Huang, E.-S. eds.), Springer-Verlag, Berlin, pp. 225-255 (1993); Akanitapichat et al., Antiviral Research 45: 123-134 (2000)) but with the following modifications. For the HCMV plaque-elimination assay, HEL cells were plated in standard medium at 60,000 per cm^2 and infected the following day with 50-100 PFU HCMV for 90 minutes with occasional agitation. The inoculate was replaced with maintenance medium containing 5% (v/v) fetal calf serum and test agents as indicated (see below). After an additional 6-10 days of culture, cells were fixed with formal saline (10% formalin in phosphate-buffered saline; PBS), stained with 0.1% (w/v) toluidine blue in PBS and plaques were scored using an inverted light microscope at 40x magnification (FIGS. 2A and 3). For ED50 determination, the value was interpolated from dose-response data and is the concentration of compound that reduced plaque formation by 50% relative to control under the specified condition.

HSV-2 [2] = assay: HSV-2 viral yield-reduction assay in Vero cells; type: cell-based, HSV-2 (strain 186); conditions: for EC50: read-out: ED50 HSV-2
Method: (§2) Three types of antiviral assay were used for HSV studies. For plaque-elimination, Vero cells (70000 per cm^2) were infected with 50-100 PFU for 30 minutes with occasional agitation. The inoculate was replaced with medium containing 1% (v/v) fetal calf serum and supplemented with test agents as indicated (see below). After two days of culture, cells were processed using crystal violet staining and plaques were scored by visual examination (FIG. 3). For examination of anti-HSV activity in parallel cultures during biochemical experiments, the progeny virus obtained from cells and from the culture medium at 23 hours post-infection was determined by limiting dilution on Vero cells (FIG. 5A). Macroscopic viral plaques were scored after two days of incubation in medium containing 1% (w/v) carboxymethylcellulose and 0.5% (v/v) fetal calf serum. For ED50 measurements, the concentration of compound that reduced a single-cycle of viral yield by 50% relative to the control and under the specified condition was interpolated from dose-response graphs (FIG. 4, Table 1). Over the course of ten independent experiments, the mean cell-associated viral yield was 180 PFU per cell (SD=80) and 10 PFU per cell (SD=5) for HSV-1 and HSV-2 respectively. The percent viral release (into the culture medium) was 16 (SD=7) and 0.9 (SD=0.6) for HSV-1 and HSV-2 respectively. These virologic parameters were independent of viral load and serum concentration.

HSV-2 [3] = assay: HSV-2 plaque-elimination assay in Vero cells; type: cell-based, HSV-2 (strain 186); conditions: fixed concentration, five micromolar (1, 2, ACV ten micromolar; PFA 250 micromolar), Vero cells, FIG. 3
Method: as §2

[4] = Vero cell growth inhibition (Sulforhodamine B protein-dye binding); type: cell-based, African green monkey; conditions: African green monkey
Method: as §1

HSV-1 = HSV-1 viral yield-reduction assay in Vero cells; type: cell-based, HSV-1 (KOS); conditions: for EC50: read-out: ED50 HSV-1
Method: as §2

Vero = Vero cell growth inhibition (Sulforhodamine B protein-dye binding); type: cell-based, African green monkey; conditions: for percent inhibition observed at the highest concentration tested, Vero growth: number in parenthesis
Method: as §1

HSV = conditions: published work; cited from earlier work
[5] = tested on: HSV-2 late viral proteins; assay: HSV-2 late viral protein synthesis (pulse labeling, SDS-PAGE, phosphor-imaging); type: cell-based; conditions: twenty micromolar, 0.1 PFU, 2% (v/v) serum
Method: Analysis of HSV proteins. Viral protein synthesis was examined using pulse labeling, SDS-PAGE gel separation and phosphor-imaging. Vero cells were infected and treated under conditions specified below and in FIG. 5. After 17 hours of infection, 10 μCi/mL TRAN^35S-LABEL ™ was added directly to culture medium and incubation continued for 30 more minutes. Radio-labeled cell cultures were carefully washed with PBS pre-warmed to 37° C. then lysed at 2,000,000 cells per mL in the same buffer supplemented with 2% (w/v) SDS. After denaturing cell lysates in Laemmli loading buffer, total proteins recovered from 30,000 cells were separated using either 8% (FIG. 5B) or 10% (FIG. 5D) PAGE-SDS gels (U. Laemmli, Nature, 227,680-685 (1970)). Proteins were transferred to nitrocellulose and the synthesized proteins were visualized and quantified using a STORM phosphorimager (Molecular Devices, Sunnyvale CA) and the supplied ImageQuant software according to the manufacturers instructions (FIG. 5, panels B and C). Protein load between samples was compared qualitatively by visual examination of filters stained with India-Ink. A complementary approach for assessing drug effect on viral proteins involved immune detection on a Western-blot using conditions and reagents described previously (Akanitapichat and Bastow, supra 2002).

host cell replication = assay: Host cell replication (CC50), host cell not specified; type: cell-based; conditions: mean CC50
Method: as §1

[6] = Human alphaherpesvirus 2, viral yield-reduction, 1 PFU per cell in 5% (v/v) serum, Vero cells
[7] = Vero cells, cell growth inhibition, two days of continuous treatment, read-out: CC50 Vero
[8] = Human alphaherpesvirus 1, viral yield-reduction, 1 PFU per cell in 5% (v/v) serum, Vero cells
[9] = Human betaherpesvirus 5, prevention of microscopic viral plaques, HEL cells
[10] = cell growth inhibition, two days of continuous treatment
[11] = quantitative comparison, Table 1

Compound: C=CCOc1cc(O)c2c(=O)c3cc(OC)ccc3[nH]c2c1 [Compound 10, 3-Allyloxy-1-hydroxy-7-methoxyacridone]
CC50 at 2 days ([1]; HEL cells): > 50 µM | percent inhibition observed at the highest concentration tested, HEL growth (HEL): 33% | effect on HSV-1 viral protein accumulation (HSV-1 proteins): no effect | inhibition of HCMV replication in plaque-elimination screen (HCMV; HEL cells): almost completely preventing the formation of microscopic viral plaques | percent inhibition observed at the highest concentration tested, HCMV (HCMV): 80% | activity against HCMV, in words (HCMV): at least as active as the 3,7-dimethoxy lead (2) | selectivity, inhibition of HSV-2 replication (HSV-2 [2]): 24 fold | EC50 (HSV-2 [2]; [6]): 3.9 ± 1 µM | inhibition of HSV-2 replication in plaque-elimination screen (HSV-2 [3]): almost completely preventing the formation of microscopic viral plaques | CC50 at 2 days [4, 7]: 95 ± 2 µM | selectivity, inhibition of HSV-1 replication (HSV-1): 41 fold | change of ED50 concentration for inhibition of viral release (HSV-1; HSV-1, low viral load (0.01 PFU) and low serum (0.5% v/v), FIG. 4 panel D): decreased about six-fold | inhibition at 10 µM (HSV-1; Human alphaherpesvirus 1, Vero, 10 micromolar, 16 hours, 2% (v/v) serum, various viral loads, FIG. 5D, read-out: inhibition of HSV-1 viral replication): 64 to 95% | EC50 (HSV-1; [8]): 2.3 ± 0.3 µM

Compound: COc1ccc2[nH]c3cc(O)cc(O)c3c(=O)c2c1 [Compound 3, 1,3-Dihydroxy-7-methoxyacridone]
inhibition of HCMV replication in plaque-elimination screen (HCMV; HEL cells): inactive | inhibition of HSV-2 replication in plaque-elimination screen (HSV-2 [3]): inactive

Compound: Nc1nc2c(ncn2COCCO)c(=O)[nH]1 [ACV, Acyclovir]
CC50 at 2 days ([1]; HEL cells): > 500 µM | effect on HSV-1 viral protein accumulation (HSV-1 proteins): abolished | EC50 (HCMV; [9]): > 200 µM | activity against HCMV, in words (HCMV): inactive | activity against HSV-2 relative to HSV-1 (HSV-2 [2]): four-fold less active | EC50 (HSV-2 [2]; [6]): 0.8 ± 0.1 µM | CC50 at 2 days [4, 7]: > 200 µM | percent inhibition observed at the highest concentration tested, Vero growth (Vero): 41% | EC50 (HSV-1; [8]): 0.2 µM

Compound: COc1cc(O)c2c(=O)c3cc(O)ccc3[nH]c2c1 [Compound 4, 1,7-Dihydroxy-3-methoxyacridone]
inhibition of HSV-2 replication in plaque-elimination screen (HSV-2 [3]): only inhibited HSV replication | CC50 at 2 days ([4]; Vero cells, read-out: CC50 against Vero replication): 25 µM

Compound: O=c1c2cc(O)ccc2[nH]c2cc(O)cc(O)c12 [1,3,7-trihydroxyacridone]
selectivity of anti-HSV action (HSV): 3 fold

Compound: O=C(O)P(=O)(O)O [PFA, phosphonoformic acid]
CC50 at 2 days ([1]; HEL cells): > 500 µM | percent inhibition observed at the highest concentration tested, HEL growth (HEL): 11% | EC50 (HCMV; [9]): 70 ± 10 µM | EC50 (HSV-2 [2]; Human alphaherpesvirus 2, Vero): 60 ± 5 µM | CC50 at 2 days [4, 7]: > 500 µM | percent inhibition observed at the highest concentration tested, Vero growth (Vero): 11%

Compound: COc1cc(O)c2c(=O)c3cc(OC(C)C)ccc3[nH]c2c1 [Compound 13, 1-Hydroxy-7-isopropoxy-3-methoxyacridone]
CC50 at 2 days ([1]; HEL cells): 12 µM | inhibition of HCMV replication in plaque-elimination screen (HCMV; HEL cells): active

Compound: COc1cc(O)c2c(=O)c3cccc(O)c3n(C)c2c1OC [Citrusinine-I]
CC50 (HEL; [10]): 41 ± 5 µM | HSV-2 late protein synthesis remaining [5]: about 10 % of control | activity against HCMV, in words (HCMV): selective inhibitor | activity against HSV-2, in words (HSV-2 [2]; [11]): selective inhibitor | HSV-2 replication remaining (HSV-2 [2]; twenty micromolar, 0.1 PFU, 22 hours, 2% (v/v) serum): about 10 % of control | inhibition of HSV-2 replication in plaque-elimination screen (HSV-2 [3]): HSV plaque-size was uniformly smaller in the presence of Citrusinine I but the number of visible plaques was not reduced | CC50 (Vero; [10]): 27 ± 4 µM | activity against HSV-1 (KOS), in words (HSV-1; [11]): inactive

Compound: COc1cc(O)c2c(=O)c3cccc(OC)c3[nH]c2c1 [Compound 5, 3,5-Dimethoxy-1-hydroxyyacridone]
inhibition of HCMV replication in plaque-elimination screen (HCMV; HEL cells): inactive | inhibition of HSV-2 replication in plaque-elimination screen (HSV-2 [3]): inactive | CC50 (host cell replication): 33 µM

Compound: O=c1c2cccc(Cl)c2[nH]c2cc(O)cc(O)c12 [Compound 1, 5-chloro-1,3-dihydroxyacridone]
CC50 at 2 days [1]: > 50 µM | percent inhibition observed at the highest concentration tested, HEL growth (HEL): 18% | selectivity of anti-HSV action (HSV): 26 fold | EC50 (HCMV; Human betaherpesvirus 5, HEL): > 50 µM | percent inhibition observed at the highest concentration tested, HCMV (HCMV): 25% | EC50 (HSV-2 [2]; Human alphaherpesvirus 2, Vero): 3.8 ± 0.3 µM | CC50 at 2 days ([4]; cell growth inhibition, two days of continuous treatment, read-out: CC50 Vero): > 50 µM | percent inhibition observed at the highest concentration tested, Vero growth (Vero): 23% | EC50 (HSV-1; Human alphaherpesvirus 1, Vero): 4.3 ± 0.8 µM

Compound: COc1ccc2[nH]c3cc(OC(C)C)cc(O)c3c(=O)c2c1 [Compound 8, 1-Hydroxy-3-isopropoxy-7-methoxyacridone]
inhibition of HCMV replication in plaque-elimination screen (HCMV; HEL cells): almost completely preventing the formation of microscopic viral plaques | viral release (HSV-2 [2]; 10 μM in 2% (v/v) serum, 0.001 PFU per cell HSV-2, up to forty-eight hours after infection): completely prevented viral release | inhibition at 10 µM (HSV-2 [2]; Human alphaherpesvirus 2, Vero, 10 μM in 2% (v/v) serum, 0.001 PFU per cell HSV-2, forty-eight hours, read-out: inhibition of production of cell-associated virus): 80% | inhibition of HSV-2 replication in plaque-elimination screen (HSV-2 [3]): almost completely preventing the formation of microscopic viral plaques

EC50 (HCMV; [9]): 6.9 ± 0.6 µM
Compound: COc1ccc2[nH]c3cc(OCc4ccccc4)cc(O)c3c(=O)c2c1 [Compound 9, 3-Benzyloxy-1-hydroxy-7-methoxyacridone]
anti-HCMV activity relative to compound 2 (HCMV): about five-fold less active than 2 | inhibition of HCMV replication in plaque-elimination screen (HCMV; HEL cells): inhibited HCMV but not HSV-2 replication | inhibition of HSV-2 replication in plaque-elimination screen (HSV-2 [3]): inhibited HCMV but not HSV-2 replication

— patent publication US20050049273A1, “Acridone derivatives as anti-herpesvirus agents” (priority 2003, published 2005)
